The values that follow come from patent publication US12502365B2 (Instytut Biologii Doswiadczalnej Im. Marcelego Nenckiego …, priority 2019, dated 2025).

Series [1] concerns mouse model of epileptogenesis (intra-hippocampal kainic acid injection). Kind of series: Functional analysis in mouse model of epileptogenesis (intra-hippocampal kainic acid injection), video-EEG. As to conditions: for duration of the single seizure: P=0.02. In kind it is in vivo, mice. As for the experimental part:
The functional analysis of therapeutic use of marimastat in mouse model of epileptogenesis (intra-hippocampal kainic acid injection) was performed. Epileptogenesis was induced by the administration of kainic acid directly into the CA1 region of the hippocampus, during stereotactic surgeries. Coordinates for CA1 were chosen according to Paxinos Mouse Brain Atlas. […] The mice were injected intraperitoneally (9 mg/kg b.w.), 3 times after administration of kainic acid at: • 1. 30 minutes • 2. 6 hours • 3. […] Each group consisted of 6 animals; the experiment was performed in two repetitions. Simultaneously, just after KA injections, mice were implanted with cranial and hippocampal electrodes for EEG registration (FIG. 3). […] Injected kainic acid stimulated the degeneration within CA1 and CA3 region, but also led to the changes within dentate gyms area. One of the most important changes observed in the epileptogenesis process was mossy fiber sprouting located in dentate gyms DG. Mossy fiber sprouting is defined as an aberrant sprouting of granule cells axons (mossy fibers) into the inner molecular layer of the dentate gyrus. This process is observed in patients with temporal lobe epilepsy (Buckmaster, 2012). Therefore, hippocampal electrode location was implanted into DG, below the injection site, according to coordinates: The electrode implantation process proceeded according to the following protocol. Stainless steel screw electrodes (Ø1.6 mm, Bilaney Consultants GmbH, Germany) were placed in the skull (Table 3; FIG. 3). A bipolar hippocampal electrode was positioned in the dentate gyms. The 2-week continuous (24 h/7 days) video-EEG (vEEG) monitoring was started immediately after KA injection. Mice were placed in PMMA cages (one mouse per cage) and connected to the recording system with commutators (SL6C, Plastics One Inc., USA). vEEG was performed using the Twin EEG recording system connected to a Comet EEG PLUS with 57-channel amplifier AS40-PLUS (Natus Medical Incorporated, USA) and filtered (high-pass filter cut-off 0.3 Hz, low-pass filter cut off 100 Hz). The behavior of the animals was recorded using a digital camera I-PRO WV-SC385 (Panasonic, Japan). As outcome measures, the present Inventors assessed the occurrence, frequency and duration of spontaneous seizures. An electroencephalographic seizure was defined as a high amplitude (>2× baseline) rhythmic discharge that clearly represented an abnormal EEG pattern that lasted >5 s. The frequency of seizures in each mouse was calculated as the number of seizures per completed EEG recording day or per week. Modified Racine's scale was used in the study (Racine, 1972): The experiment was divided into three parts: • 1) first 24 hours post-KA injection (acute response to injected convulsant) • 2) first week post-KA injection (acute response to injected convulsant) • 3) 4 weeks after KA injection (epileptogenesis upon injected convulsant—chronic changes) In each stage, several parameters were calculated: seizure duration (in seconds), seizure score (according the Racine scale), seizure number (per animal/per day). Additionally, in the first 24 hours, the time between the kainic acid injection and first epileptic seizure was also estimated.

The conditions of series [2]: humans, oral; cited from earlier work.
Series [3] concerns the target T1, MMP-9 (Rattus norvegicus, UniProt P50282).
T1 construct: stimulate neuronal cell activity leading to release of MMP-9; endogenous in cells; host or cells: primary rat hippocampal neurons, 7 DIV
Kind of series: Inhibition of MMP-9-dependent nectin-3 cleavage in glutamate-stimulated hippocampal neuron cultures (immunoblotting). In kind it is cell-based. As for the experimental part: In the first non-limiting example, the compound was tested for specific inhibition of MMP-9 activity in vitro. Hippocampal neurons were prepared from newborn Wistar rats at postnatal day P0 as described previously (Habas et al., 2006). The culture medium consisted of Neurobasal Medium supplemented with B27 (Invitrogen) and 1 mM 1-glutamine, 100 U ml^−1 penicillin and 0.1 mg ml^−1 streptomycin. The cells used for these experiments were 7 DIV. […] The control cultures consisted of neurons stimulated with glutamate and of glutamate in the presence of inhibitor I (an inhibitor with proven inhibitory effect on MMP-9 activity). […] The MMP-9 activity level was evaluated by the cleavage of MMP-9 substrate-nectin-3.
Nectin-3 is a transmembrane protein predominantly expressed at post-synaptic part of the synapse (van der Kooij et al., 2014). […] We evaluated the basic amount of nectin-3 (by immunoblotting) and the presence of a cut fragment of nectin-3 (approximately 17 kDa).
For immunoblotting, cultures were homogenized in a lysis buffer containing 1 mM MgCl2, 5 mM HEPES (pH=7.4), 320 mM sucrose, 1 mM Na2F, and cOmplete™ Protease Inhibitor Cocktail (Roche) using Dounce glass homogenizer. Protein concentration was measured using BCA Protein Assay Kit (Pierce). […] For the quantification of individual bands, the scan of the photographic film was analyzed by densitometry using GeneTools software (Syngene).

In series [4] the target is T2, MMP-9 (Mus musculus, UniProt P41245).
T2 construct: strongly associated with the release of MMP-9 from dendritic spines; from tissue; host or cells: mouse hippocampus (in vivo, after kainic acid)
T2 sequence (P41245 108-730): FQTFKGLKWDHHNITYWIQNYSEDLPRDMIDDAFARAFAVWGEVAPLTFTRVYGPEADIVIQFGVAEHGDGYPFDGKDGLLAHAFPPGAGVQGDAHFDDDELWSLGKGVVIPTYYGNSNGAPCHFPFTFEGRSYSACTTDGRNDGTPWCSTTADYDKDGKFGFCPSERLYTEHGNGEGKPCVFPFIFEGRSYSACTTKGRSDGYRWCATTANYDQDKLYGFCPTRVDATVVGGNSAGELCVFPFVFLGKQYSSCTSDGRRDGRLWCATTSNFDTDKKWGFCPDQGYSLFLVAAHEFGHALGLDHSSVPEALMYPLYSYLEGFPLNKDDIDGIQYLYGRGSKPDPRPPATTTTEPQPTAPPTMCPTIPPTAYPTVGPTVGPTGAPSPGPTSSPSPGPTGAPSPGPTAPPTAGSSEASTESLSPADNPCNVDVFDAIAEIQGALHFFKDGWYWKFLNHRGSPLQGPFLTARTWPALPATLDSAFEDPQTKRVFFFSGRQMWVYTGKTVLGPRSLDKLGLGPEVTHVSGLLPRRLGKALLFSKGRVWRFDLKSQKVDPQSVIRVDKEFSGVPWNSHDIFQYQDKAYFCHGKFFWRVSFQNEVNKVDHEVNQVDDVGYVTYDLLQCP
The series can be described thus: MMP-9-dependent nectin-3 cleavage in hippocampus after kainic acid injection (immunoblotting). In kind it is in vivo, mice. To be noted: 9 mg/kg i.p. 1 hour prior to KA; hippocampus 6 hours after KA. On the procedure:
In a further nonlimiting example, marimastat was tested in vivo, in a mouse model of epileptogenesis (intra-hippocampal kainic acid injection). […] This is the optimal time allowing for its potential therapeutic effects. […] As a result of the KA injection, strong epileptic seizures were observed due to increased neuronal activity.
The process of developing epileptic seizures evoked by KA (epileptogenesis) is strongly associated with the release of MMP-9 from dendritic spines. […] For this purpose, after 6 hours following KA-injection the hippocampus was isolated and the immunoblotting assay was performed for the presence of cleaved form of nectin-3 protein.

Series [5] concerns MMP-1, MMP-2, MMP-3, MMP-7 and MMP-9. To be noted: cited from earlier work.
Series [6] deals with murine cancer models: melanoma, hemangioma, ovarian carcinoma, colorectal, breast and pancreatic cancer. As to conditions: cited from earlier work.
The conditions of series [7]: single dose up to 800 mg or repeated dose up to 200 mg twice a day for a week; cited from earlier work.
Where [8] appears, read: 4 weeks after KA injection, not significant.

T1 sequence (P50282 108-708): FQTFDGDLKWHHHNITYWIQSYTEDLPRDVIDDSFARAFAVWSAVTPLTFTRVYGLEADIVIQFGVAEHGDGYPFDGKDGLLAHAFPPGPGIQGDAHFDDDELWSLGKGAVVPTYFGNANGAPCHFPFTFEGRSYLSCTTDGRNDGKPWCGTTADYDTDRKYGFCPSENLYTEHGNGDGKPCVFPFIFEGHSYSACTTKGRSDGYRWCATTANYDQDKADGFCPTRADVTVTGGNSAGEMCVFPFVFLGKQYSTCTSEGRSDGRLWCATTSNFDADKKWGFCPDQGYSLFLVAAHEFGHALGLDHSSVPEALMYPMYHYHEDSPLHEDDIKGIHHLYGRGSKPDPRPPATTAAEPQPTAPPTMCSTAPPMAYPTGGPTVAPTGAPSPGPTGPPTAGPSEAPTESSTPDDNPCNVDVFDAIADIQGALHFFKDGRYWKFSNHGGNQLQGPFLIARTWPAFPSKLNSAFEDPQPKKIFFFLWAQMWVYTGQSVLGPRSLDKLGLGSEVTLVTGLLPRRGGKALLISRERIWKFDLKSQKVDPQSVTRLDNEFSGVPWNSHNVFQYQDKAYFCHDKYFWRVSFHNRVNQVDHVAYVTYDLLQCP

Consider `CNC(=O)[C@@H](NC(=O)[C@H](CC(C)C)[C@H](O)C(=O)NO)C(C)(C)C` [marimastat, Marimastat], for which the “duration of the single seizure” value in series [1] (4 weeks after KA injection) was “inhibited”. Moreover, in series [1] (setting [8]), the seizure number entry is listed as “slightly decreased” and the seizure score entry is recorded as “slightly decreased”. In series [1] (first 24 hours post-KA), the “latency to the 1st seizure” value is listed as “no differences” and the seizure duration entry was “no differences”. Besides, in series [1] (first 24 hours post-KA, 9 mg/kg i.p. at 30 min, 6 h, 24 h, P=0.0016), the “seizure score (Racine scale)” value is given as “significantly decreased”. For the same compound, the seizure number result in series [1] (first 24 hours post-KA, P=0.005) is on record as “significantly decreased”. In series [1] (first week post-KA), the seizure number entry is given as “did not change”, the seizure score entry is listed as “did not change” and the “duration of the single seizure” value is on record as “significantly reduced”. In addition, in series [2], the bioavailability entry was “high and predictable”; the half-life result was “approximately 15 hours”. Moreover, at MMP-9 [3] (hippocampal dissociated cell cultures, 7 DIV, glutamate 5 μM, 17 kDa nectin-3 fragment), the “MMP-9-dependent cleavage of nectin-3 in vitro” value is reported as “inhibits”. The “minimum effective dose inhibiting nectin-3 cleavage” value on MMP-9 [3] (tested at 5 nM, 0.5 μM, 5 μM, 40 μM and 100 μM, 30 min before glutamate) was 0.5 µM. Moreover, the “MMP-9-dependent nectin-3 enzymatic cleavage in vivo (optical density of the 17 kDa nectin-3 fragment)” value on MMP-9 [4] was “specifically reduced”. Moreover, in series [5], the “inhibitory activity against major MMPs” value is reported as “potent broad-spectrum inhibitory activity”. In series [6], the tumor progression entry is listed as “inhibited tumor progression”. The “side effects in healthy subjects” value in series [7] was “did not show any side effects”.
